Test results published in patent publication US20250332300A1 (priority 2024, published 2025).
Like-named read-outs stand apart in the source and are kept apart here. Starred links: 1 amine or outer side, 2 acyl side, 3 side chain; linkers in the order of their positions; H or OH if unused. Positions of bridges follow the written chain, without caps; N, C: chain ends. Non-standard residues stand in square brackets, D forms with d. Residues, ends and D or L forms follow the SMILES beside them. *: point of attachment. DOTA = O=C(O)CN1CCN(CC(=O)O)CCN(CC(=O)*)CCN(CC(=O)O)CC1; Trp(5-OH) = N[C@@H](Cc1c[nH]c2ccc(O)cc12)C(=O)O; NMePhe(4-F) = CN[C@@H](Cc1ccc(F)cc1)C(=O)O; NMehPhe = CN[C@@H](CCc1ccccc1)C(=O)O; Adipoyl = O=C(CCCCC(=O)[*:2])[*:1]; Gly(cPr) = N[C@H](C(=O)O)C1CC1; NMeK = CN[C@@H](CCCCN)C(=O)O; NMeDap = CN[C@@H](CN)C(=O)O

Tests used:
[1] = biological target: T1, human HER2 (23-652) (Homo sapiens, UniProt P04626); assay: Surface plasmon resonance (SPR) for assessment of peptide affinity, human HER2; type: binding; design: towards human HER2 (23-652) and mouse HER2 (23-653); made in house; details: SPR, human HER2 extracellular domain, 25° C., 1:1 binding model; read-out: huHER2-SPR-ONC KD
T1 sequence (P04626 23-652): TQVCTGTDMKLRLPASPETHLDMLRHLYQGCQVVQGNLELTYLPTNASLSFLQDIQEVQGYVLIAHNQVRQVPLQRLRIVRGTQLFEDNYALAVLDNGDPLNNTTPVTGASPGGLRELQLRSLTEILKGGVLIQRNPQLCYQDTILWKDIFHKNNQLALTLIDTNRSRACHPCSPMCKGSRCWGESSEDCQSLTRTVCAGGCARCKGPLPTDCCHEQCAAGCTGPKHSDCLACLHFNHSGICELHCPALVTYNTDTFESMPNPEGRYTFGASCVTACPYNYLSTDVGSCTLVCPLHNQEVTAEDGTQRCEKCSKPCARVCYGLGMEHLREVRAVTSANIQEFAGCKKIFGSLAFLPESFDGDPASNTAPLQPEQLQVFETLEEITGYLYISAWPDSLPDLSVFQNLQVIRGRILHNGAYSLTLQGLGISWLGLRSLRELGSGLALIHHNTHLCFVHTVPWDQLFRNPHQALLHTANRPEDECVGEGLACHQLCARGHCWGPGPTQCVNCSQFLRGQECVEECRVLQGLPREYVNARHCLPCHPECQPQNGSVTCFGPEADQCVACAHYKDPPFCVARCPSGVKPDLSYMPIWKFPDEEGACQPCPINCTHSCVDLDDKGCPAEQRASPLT
How it was run: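 Binding kinetics fitted from sensorgrams with 280 s peptide association then 3000 s dissociation (30 uL/min), using HER2 (23-652) either directly immobilized (SA/CM5) or anti-Fc-captured; 3 M magnesium chloride used for regeneration.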

[2] = biological target: T2, mouse HER2 (23-653) (Mus musculus, UniProt P70424); assay: Surface plasmon resonance (SPR) for assessment of peptide affinity, mouse HER2; type: binding; design: mouse HER2 (23-653) using a Cy5 labeled peptide as a probe; made in house; details: SPR, mouse HER2 extracellular domain, 25° C., 1:1 binding model; read-out: moHER2-SPR-ONC KD
T2 sequence (P70424 23-653): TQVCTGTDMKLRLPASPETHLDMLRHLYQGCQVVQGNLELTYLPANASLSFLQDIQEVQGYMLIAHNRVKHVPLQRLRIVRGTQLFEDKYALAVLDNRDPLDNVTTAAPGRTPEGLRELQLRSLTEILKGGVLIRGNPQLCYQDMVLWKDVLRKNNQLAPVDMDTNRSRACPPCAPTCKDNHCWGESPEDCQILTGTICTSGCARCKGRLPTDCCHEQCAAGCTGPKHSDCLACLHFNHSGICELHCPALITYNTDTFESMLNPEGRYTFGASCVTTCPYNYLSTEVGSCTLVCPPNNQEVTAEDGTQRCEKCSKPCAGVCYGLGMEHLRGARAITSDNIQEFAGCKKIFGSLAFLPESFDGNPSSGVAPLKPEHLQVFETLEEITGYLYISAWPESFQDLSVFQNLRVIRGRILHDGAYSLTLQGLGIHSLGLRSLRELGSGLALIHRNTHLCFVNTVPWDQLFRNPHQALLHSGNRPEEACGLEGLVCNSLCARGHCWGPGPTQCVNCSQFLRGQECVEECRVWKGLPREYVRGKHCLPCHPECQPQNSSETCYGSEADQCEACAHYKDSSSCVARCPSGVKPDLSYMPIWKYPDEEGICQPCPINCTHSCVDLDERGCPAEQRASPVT
From the text: Each protein was immobilized either onto a SA sensorchip (Cytiva, BR-1005-31) or CM5 sensorchip (Cytiva, BR-1005-30) to a density of 800-2000 RU.

[3] = biological target: T1, human HER2 (23-652); assay: TR-FRET competition assay for peptide potency, human HER2; type: binding; design: towards human HER2 (23-652) and mouse HER2 (23-653); made in house; host or cells: mammalian cells; details: TR-FRET competition with Cy5 labeled peptide probe, 0.1 nM human HER2, 24 h incubation; read-out: huHER2 TR-FRET IC50
[4] = biological target: T2, mouse HER2 (23-653); assay: TR-FRET competition assay for peptide potency, mouse HER2; type: binding; design: mouse HER2 (23-653) using a Cy5 labeled peptide as a probe; made in house; host or cells: mammalian cells; details: TR-FRET competition with Cy5 labeled peptide probe, 0.1 nM mouse HER2, 24 h incubation; read-out: moHER2 TR-FRET IC50
[5] = amide bond, 30-membered ring, PyAOP/DIEA, DMF, resin, […], 50.0 °C, with chain assembly

For “4-(((3S,6S,9S,12S,15S,18S,21S,24S,27S)-9-((1H-indol-3-yl)methyl)-15-(4-acetamidobutyl)-6-cyclopropyl-3-(((S)-1-(((S)-1,6-diamino-1-oxohexan-2-yl)amino)-3-(4-fluorophenyl)-1-oxopropan-2-yl)(methyl)carbamoyl)-12-((5-hydroxy-1H-indol-3-yl)methyl)-24-(4-hydroxybenzyl)-21-(hydroxymethyl)-4,16,19-trimethyl-5,8,11,14,17,20,23,26,31-nonaoxo-18-phenethyl-1,4,7,10,13,16,19,22,25-nonaazacyclohentriacontan-27-yl)amino)-4-oxobutanoic acid TFA salt”, the ring closure, yield after HPLC (amide bond, 31-membered ring, PyAOP/Et3N, then TFA, DCM, 0.79 mM, 2 steps) was 61%.
With “2-(4-(((S)-5-((S)-2-((3S,6S,9S,12S,15S,18S,21S,24S,27S)-9-((1H-indol-3-yl)methyl)-15-(4-acetamidobutyl)-27-(3-aminopropanamido)-12-((5-hydroxy-1H-indol-3-yl)methyl)-24-(4-hydroxybenzyl)-6-((S)-1-hydroxyethyl)-21-(hydroxymethyl)-N,4,16,19-tetramethyl-5,8,11,14,17,20,23,26,30-nonaoxo-18-phenethyl-1,4,7,10,13,16,19,22,25-nonaazacyclotriacontane-3-carboxamido)-3-(4-fluorophenyl)propanamido)-6-amino-6-oxohexyl)carbamoyl)piperazin-1-yl) acetic acid TFA salt” the ring closure, yield after HPLC (amide bond, 30-membered ring, DIC/Oxyma, DMF, resin, […], 75.0 °C, with chain assembly) was 4.7%.
For “2-((1E,3E)-5-((E)-1-(6-(((S)-5-((S)-2-((3S,6S,9S,12S,15S,18S,21S,24S,27S)-9-((1H-indol-3-yl)methyl)-27-acetamido-15-(4-acetamidobutyl)-12-((5-hydroxy-1H-indol-3-yl)methyl)-24-(4-hydroxybenzyl)-6-((S)-1-hydroxyethyl)-21-(hydroxymethyl)-N,4,16,19-tetramethyl-5,8,11,14,17,20,23,26,30-nonaoxo-18-phenethyl-1,4,7,10,13,16,19,22,25-nonaazacyclotriacontane-3-carboxamido)-3-(4-fluorophenyl)propanamido)-6-amino-6-oxohexyl)amino)-6-oxohexyl)-3,3-dimethyl-5-sulfoindolin-2-ylidene)penta-1,3-dien-1-yl)-1-ethyl-3,3-dimethyl-3H-indol-1-ium-5-sulfonate”, the ring closure, yield after HPLC [5] was 1.7%.
With “(4R,7S,10S,13S,16S,19S,22S,25S,28R)-10-((1H-indol-3-yl)methyl)-28-amino-N—((S)-1-amino-3-(4-fluorophenyl)-1-oxopropan-2-yl)-7-cyclopropyl-13-((5-hydroxy-1H-indol-3-yl)methyl)-25-(4-hydroxybenzyl)-16,22-bis(hydroxymethyl)-N,5,17,20-tetramethyl-6,9,12,15,18,21,24,27-octaoxo-19-phenethyl-1,2-dithia-5,8,11,14,17,20,23,26-octaazacyclononacosane-4-carboxamide TFA salt” the ring closure, yield after HPLC (disulfide bond, 29-membered ring, DMSO (air), DMSO/water 1/4, 1.88 mM, […]) was 26%.
With “2-((1E,3E)-5-((E)-1-(6-((3-(((3S,6S,9S,12S,15S,18S,21S,24S,27S)-9-((1H-indol-3-yl)methyl)-15-(4-acetamidobutyl)-3-(((S)-1-(((S)-1-amino-6-(4-(carboxymethyl)piperazine-1-carboxamido)-1-oxohexan-2-yl)amino)-3-(4-fluorophenyl)-1-oxopropan-2-yl)(methyl)carbamoyl)-12-((5-hydroxy-1H-indol-3-yl)methyl)-24-(4-hydroxybenzyl)-6-((S)-1-hydroxyethyl)-21-(hydroxymethyl)-4,16,19-trimethyl-5,8,11,14,17,20,23,26,30-nonaoxo-18-phenethyl-1,4,7,10,13,16,19,22,25-nonaazacyclotriacontan-27-yl)amino)-3-oxopropyl)amino)-6-oxohexyl)-3,3-dimethyl-5-sulfoindolin-2-ylidene)penta-1,3-dien-1-yl)-1-ethyl-3,3-dimethyl-3H-indol-1-ium-5-sulfonate TFA salt” the ring closure, yield after HPLC [5] was 2%.
Work on “(3R,6S,9S,12S,15S,18S,21S,24S,27S)-9-((1H-indol-3-yl)methyl)-27-amino-N—((S)-1-amino-3-(4-fluorophenyl)-1-oxopropan-2-yl)-6-cyclopropyl-12-((5-hydroxy-1H-indol-3-yl)methyl)-24-(4-hydroxybenzyl)-15,21-bis(hydroxymethyl)-N,4,16,19-tetramethyl-5,8,11,14,17,20,23,26,30-nonaoxo-18-phenethyl-1-thia-4,7,10,13,16,19,22,25,29-nonaazacyclohentriacontane-3-carboxamide TFA salt” yielded a ring closure, yield after HPLC (thioether bond, 31-membered ring, DIEA, then pyrrolidine, ACN/water, […], with chain assembly) of 1%.
Work on “HOOC(CH2)4CO-Tyr-Ser-MehPhe-MeLys(Ac)-Trp(5-OH)-Trp-Gly(cPr)-MeDap-MePhe(4-F)-Lys(Boc)-NH2?” yielded a ring closure, yield after HPLC (the molecule shown is the open-chain precursor, amide bond, 31-membered ring, PyAOP/Et3N, DCM, 0.52 mM) of 51%.
In the case of “Ac-hGlu-Tyr-Ser-MehPhe-MeLys(COCH2OH)-Trp(5-OH)-Trp-Gly(cPr)-MeDap-MePhe(4-F)-Lys(Alloc)-NH2?”, the ring closure, yield after HPLC (the molecule shown is the open-chain precursor, amide bond, 31-membered ring, PyAOP/DIEA, then Pd(PPh3)4/PhSiH3, DMF, 5.0 mM, with chain assembly) is reported as 10.3%.
Work on “(3R,6S,9S,12S,15S,18S,21S,24S,27S)-9-((1H-indol-3-yl)methyl)-27-acetamido-N—((S)-1-amino-3-(4-fluorophenyl)-1-oxopropan-2-yl)-6-cyclopropyl-12-((5-hydroxy-1H-indol-3-yl)methyl)-24-(4-hydroxybenzyl)-15,21-bis(hydroxymethyl)-N,4,16,19-tetramethyl-5,8,11,14,17,20,23,26,30-nonaoxo-18-phenethyl-1-thia-4,7,10,13,16,19,22,25,29-nonaazacyclohentriacontane-3-carboxamide” yielded a ring closure, yield after HPLC (thioether bond, 31-membered ring, DIEA, ACN/water, […], with chain assembly) of 6%.
In the case of “Fmoc-hGlu-Tyr-Ser-MehPhe-MeLys(Ac)-Trp(5-OH)-Trp-Gly(cPr)-MeDap-MePhe(4-F)-Lys(N3)-NH2?”, the ring closure, yield after HPLC (the molecule shown is the open-chain precursor, amide bond, 31-membered ring, HATU/2,6-lutidine, DMF/DCM 1:10, 0.76 mM) is reported as 64%.
Molecule “2-(4-(((11S,48S)-48-((S)-2-((3S,6S,9S,12S,15S,18S,21S,24S,27S)-9-((1H-indol-3-yl)methyl)-27-acetamido-15-(4-acetamidobutyl)-12-((5-hydroxy-1H-indol-3-yl)methyl)-24-(4-hydroxybenzyl)-6-((S)-1-hydroxyethyl)-21-(hydroxymethyl)-N,4,16,19-tetramethyl-5,8,11,14,17,20,23,26,30-nonaoxo-18-phenethyl-1,4,7,10,13,16,19,22,25-nonaazacyclotriacontane-3-carboxamido)-3-(4-fluorophenyl)propanamido)-11-carbamoyl-5,13,47-trioxo-1-((3aS,4S,6aR)-2-oxohexahydro-1H-thieno[3,4-d]imidazol-4-yl)-16,19,22,25,28,31,34,37,40,43-decaoxa-6,12,46-triazadopentacontan-52-yl) carbamoyl) piperazin-1-yl) acetic acid TFA salt” has a ring closure, yield after HPLC [5] of 1.9%.
In the case of CC(=O)NCCCC[C@H]1C(=O)N[C@@H](Cc2c[nH]c3ccc(O)cc23)C(=O)N[C@@H](Cc2c[nH]c3ccccc23)C(=O)N[C@@H](C2CC2)C(=O)N(C)[C@H](C(=O)N(C)[C@@H](Cc2ccc(F)cc2)C(=O)N[C@@H](CCCCNC(=O)CN2CCN(CC(=O)O)CCN(CC(=O)O)CCN(CC(=O)O)CC2)C(N)=O)CNC(=O)CCCCC(=O)N[C@@H](Cc2ccc(O)cc2)C(=O)N[C@@H](CO)C(=O)N(C)[C@@H](CCc2ccccc2)C(=O)N1C [Example C14] (YS[NMehPhe][NMeK](Ac)[Trp(5-OH)]W[Gly(cPr)][NMeDap][NMePhe(4-F)]K(DOTA)-NH2; linker N-8 via Adipoyl), the Kd [1] is reported as < 0.1 nM, the Kd [2] is reported as 0.2 nM and the IC50 [3] is reported as < 0.1 nM. It also gave an IC50 [4] of 0.3 nM.
With CC(=O)NCCCC[C@H]1C(=O)N[C@@H](Cc2c[nH]c3ccc(O)cc23)C(=O)N[C@@H](Cc2c[nH]c3ccccc23)C(=O)N[C@@H](C2CC2)C(=O)N(C)[C@H](C(=O)N(C)[C@@H](Cc2ccc(F)cc2)C(=O)N[C@@H](CCCCNC(=O)CN2CCN(CC(=O)O)CCN(CC(=O)O)CCN(CC(=O)O)CC2)C(N)=O)CNC(=O)CCC[C@H](NC(=O)CCC(=O)O)C(=O)N[C@@H](Cc2ccc(O)cc2)C(=O)N[C@@H](CO)C(=O)N(C)[C@@H](CCc2ccccc2)C(=O)N1C [Example C11] the Kd [1] was < 0.1 nM, the Kd [2] was < 0.1 nM and the IC50 [3] was < 0.1 nM. It also gave an IC50 [4] of 0.1 nM.
